One block for each compound: values may come before it. Active and inactive are the calls of the source.
What was measured:
[1] = target: Protein-tyrosine kinase 2-beta (Homo sapiens, UniProt Q14289);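 also: potency of inhibitors of PYK2 kinase phosphorylation of poly-GT substrate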
[2] = target: Glyceraldehyde-3-phosphate dehydrogenase (Homo sapiens, UniProt P04406)
Bcl-2-related protein A1 [3] = target: T1, Bcl-2-related protein A1 (Mus musculus, UniProt Q07440); assay: small-molecule antagonists of Bfl-1/BH3 interaction – biochemical, TR-FRET, mouse Bfl-1, confirmation (AID 621);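 also: TR-FRET binding of GST-Bfl-1 to FITC-labelled Bid peptide via terbium antibody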
T1 sequence (Q07440 whole entry): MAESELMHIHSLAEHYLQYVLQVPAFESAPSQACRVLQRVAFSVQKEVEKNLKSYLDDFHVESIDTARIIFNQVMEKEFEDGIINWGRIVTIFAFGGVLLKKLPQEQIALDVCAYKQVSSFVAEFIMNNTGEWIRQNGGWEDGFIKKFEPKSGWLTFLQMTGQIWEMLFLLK

Bcl-2-related protein A1 [4] = target: T1, Bcl-2-related protein A1; assay: Bfl-1 binding inhibitors, SAR follow-up, biochemical, fluorescence polarization (AID 1070)
[5] = target: T2, E3 ubiquitin-protein ligase XIAP (Homo sapiens, UniProt P98170); assay: Counter Screen using XIAP-Bir3 for Chemical Antagonists of Bir1/2 domains of IAP-family anti-apoptotic proteins. [Related pubchem assays (depositor defined):AID1018, AID1449, AID1514, AID1638, AID1749, AID1750, AID488957, AID488963]
T2 sequence (P98170 whole entry): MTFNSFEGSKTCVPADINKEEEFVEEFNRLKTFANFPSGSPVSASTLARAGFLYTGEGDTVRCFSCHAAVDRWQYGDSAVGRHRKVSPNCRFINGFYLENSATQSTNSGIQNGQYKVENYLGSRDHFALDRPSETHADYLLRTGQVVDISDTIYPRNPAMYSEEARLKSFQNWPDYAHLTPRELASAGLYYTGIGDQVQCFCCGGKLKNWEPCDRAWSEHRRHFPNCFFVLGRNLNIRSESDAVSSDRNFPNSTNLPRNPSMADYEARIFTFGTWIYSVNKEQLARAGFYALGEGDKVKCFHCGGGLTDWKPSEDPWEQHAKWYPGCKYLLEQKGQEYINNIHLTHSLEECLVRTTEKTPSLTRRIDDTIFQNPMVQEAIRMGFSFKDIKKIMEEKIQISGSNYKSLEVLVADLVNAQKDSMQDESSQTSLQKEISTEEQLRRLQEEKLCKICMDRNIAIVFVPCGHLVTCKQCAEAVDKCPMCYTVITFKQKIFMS

[6] = target: T2, E3 ubiquitin-protein ligase XIAP; assay: small molecules displacing peptide from XIAP – biochemical, IAP family, fluorescence polarization (AID 1018); assay type: functional
[7] = target: Luciferin 4-monooxygenase (Photinus pyralis, UniProt P08659); assay: Counter Screen for Luciferase-based Assay Positives. [Related pubchem assays: 620, 618, 411 ]
Luciferin 4-monooxygenase, sequence (P08659 whole entry): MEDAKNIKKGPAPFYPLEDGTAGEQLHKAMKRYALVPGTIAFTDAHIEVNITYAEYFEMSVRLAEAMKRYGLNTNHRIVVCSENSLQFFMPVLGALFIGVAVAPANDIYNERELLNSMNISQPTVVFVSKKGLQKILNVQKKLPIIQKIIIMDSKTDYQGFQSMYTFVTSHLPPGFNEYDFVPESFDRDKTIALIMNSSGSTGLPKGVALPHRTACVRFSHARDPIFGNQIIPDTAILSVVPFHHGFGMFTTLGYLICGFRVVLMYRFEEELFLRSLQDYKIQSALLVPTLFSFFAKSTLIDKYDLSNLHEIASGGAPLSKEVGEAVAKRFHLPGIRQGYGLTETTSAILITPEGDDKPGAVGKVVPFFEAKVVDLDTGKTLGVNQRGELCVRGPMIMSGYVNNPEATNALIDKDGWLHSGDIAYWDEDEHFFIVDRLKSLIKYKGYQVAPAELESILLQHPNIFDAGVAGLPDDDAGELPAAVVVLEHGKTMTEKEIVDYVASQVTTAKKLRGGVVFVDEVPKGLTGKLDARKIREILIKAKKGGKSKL

HT-1080 = assay: HT1080 cell viability loss – fluorescence readout (AID 620); assay type: functional, cell-based; conditions: Homo sapiens
[8] = target: Epstein-Barr nuclear antigen 1 (Epstein-Barr virus (strain B95-8) (HHV-4) (Human herpesvirus 4), UniProt P03211); assay: inhibition of EBV nuclear antigen 1 DNA binding – biochemical, fluorescence polarization, 1536-well, dose response (AID 2381); set-up: species or system human gammaherpesvirus 4;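 also: fluorescence polarization of a Cy5 DNA probe bound by EBNA-1 protein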
Epstein-Barr nuclear antigen 1, sequence (P03211 whole entry): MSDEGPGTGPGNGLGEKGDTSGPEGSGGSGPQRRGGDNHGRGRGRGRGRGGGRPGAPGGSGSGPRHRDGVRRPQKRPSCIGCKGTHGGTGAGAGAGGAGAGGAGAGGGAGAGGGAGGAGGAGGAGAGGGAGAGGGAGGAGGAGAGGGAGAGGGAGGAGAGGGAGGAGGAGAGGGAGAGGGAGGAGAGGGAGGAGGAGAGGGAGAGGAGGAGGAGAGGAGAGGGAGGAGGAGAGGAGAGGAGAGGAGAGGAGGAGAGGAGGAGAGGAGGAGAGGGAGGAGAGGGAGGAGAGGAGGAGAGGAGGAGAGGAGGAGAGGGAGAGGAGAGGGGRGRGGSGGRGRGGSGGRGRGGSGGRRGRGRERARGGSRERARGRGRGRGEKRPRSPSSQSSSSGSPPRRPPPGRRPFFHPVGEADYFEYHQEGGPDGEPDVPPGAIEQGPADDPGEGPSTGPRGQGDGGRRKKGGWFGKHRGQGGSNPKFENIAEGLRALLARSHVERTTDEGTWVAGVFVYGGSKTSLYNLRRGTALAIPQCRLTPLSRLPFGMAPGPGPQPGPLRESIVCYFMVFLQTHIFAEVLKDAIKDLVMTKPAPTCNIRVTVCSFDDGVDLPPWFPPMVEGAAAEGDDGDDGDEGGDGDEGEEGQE

[9] = target: Lytic switch protein BZLF1 (Epstein-Barr virus (strain B95-8) (HHV-4) (Human herpesvirus 4), UniProt P03206); assay: inhibition of BZLF1 ZTA DNA binding – biochemical, fluorescence polarization, Epstein-Barr virus, 1536-well, counter-screen for EBNA-1 inhibitor project, dose response (AID 2377); set-up: species or system human gammaherpesvirus 4;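 also: fluorescence polarization of Cy5-labelled ZRE DNA probe bound by purified Zta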
Lytic switch protein BZLF1, sequence (P03206 whole entry): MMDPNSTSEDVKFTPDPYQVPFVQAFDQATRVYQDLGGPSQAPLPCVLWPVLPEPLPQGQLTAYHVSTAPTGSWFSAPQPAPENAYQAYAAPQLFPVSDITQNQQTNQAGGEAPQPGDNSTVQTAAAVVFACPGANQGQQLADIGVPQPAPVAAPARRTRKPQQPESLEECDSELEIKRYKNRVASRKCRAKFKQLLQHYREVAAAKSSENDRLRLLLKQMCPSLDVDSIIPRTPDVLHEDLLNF

[10] = target: 5-hydroxytryptamine receptor 1E (Homo sapiens, UniProt P28566); assay: Counterscreen assay for S1P3 antagonists: Dose response cell-based high throughput screening assay to identify antagonists of the 5-Hydroxytryptamine Receptor Subtype 1E (5HT1E). [Related pubchem assays: 1429, 485 ]; assay type: functional
5-hydroxytryptamine receptor 1E, sequence (P28566 whole entry): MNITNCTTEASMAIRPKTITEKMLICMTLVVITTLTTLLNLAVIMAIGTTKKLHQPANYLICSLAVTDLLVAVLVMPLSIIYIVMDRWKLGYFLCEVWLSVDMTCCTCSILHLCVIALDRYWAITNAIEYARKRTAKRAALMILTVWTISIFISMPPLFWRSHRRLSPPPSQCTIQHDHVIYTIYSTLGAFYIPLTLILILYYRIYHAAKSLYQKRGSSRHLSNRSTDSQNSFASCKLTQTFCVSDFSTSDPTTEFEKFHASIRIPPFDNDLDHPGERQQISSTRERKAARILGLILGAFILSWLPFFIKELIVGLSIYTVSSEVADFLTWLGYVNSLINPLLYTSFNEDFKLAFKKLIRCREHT

[11] = target: Sphingosine 1-phosphate receptor 3 (Homo sapiens, UniProt Q99500); assay: Dose response cell-based high throughput screening assay for antagonists of the Sphingosine 1-Phosphate Receptor 3 (S1P3). [Related pubchem assays: 1429, 485 ]; assay type: functional
Sphingosine 1-phosphate receptor 3, sequence (Q99500 whole entry): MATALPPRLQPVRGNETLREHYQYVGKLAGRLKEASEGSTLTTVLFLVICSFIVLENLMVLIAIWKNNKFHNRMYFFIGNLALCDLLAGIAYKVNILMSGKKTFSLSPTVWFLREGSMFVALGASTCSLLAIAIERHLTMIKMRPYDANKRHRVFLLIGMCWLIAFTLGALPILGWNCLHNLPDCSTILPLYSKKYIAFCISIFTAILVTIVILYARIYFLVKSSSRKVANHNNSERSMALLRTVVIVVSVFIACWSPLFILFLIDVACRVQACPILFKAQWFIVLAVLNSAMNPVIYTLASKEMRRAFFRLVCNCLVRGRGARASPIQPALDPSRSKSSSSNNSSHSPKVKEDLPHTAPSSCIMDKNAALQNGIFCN

[12] = target: T3, Heat shock 70 kDa protein 1A (Homo sapiens, UniProt P0DMV8); assay: small-molecule inhibition of Hsp70 – biochemical, TR-FRET (AID 786)
T3 sequence (P0DMV8 whole entry): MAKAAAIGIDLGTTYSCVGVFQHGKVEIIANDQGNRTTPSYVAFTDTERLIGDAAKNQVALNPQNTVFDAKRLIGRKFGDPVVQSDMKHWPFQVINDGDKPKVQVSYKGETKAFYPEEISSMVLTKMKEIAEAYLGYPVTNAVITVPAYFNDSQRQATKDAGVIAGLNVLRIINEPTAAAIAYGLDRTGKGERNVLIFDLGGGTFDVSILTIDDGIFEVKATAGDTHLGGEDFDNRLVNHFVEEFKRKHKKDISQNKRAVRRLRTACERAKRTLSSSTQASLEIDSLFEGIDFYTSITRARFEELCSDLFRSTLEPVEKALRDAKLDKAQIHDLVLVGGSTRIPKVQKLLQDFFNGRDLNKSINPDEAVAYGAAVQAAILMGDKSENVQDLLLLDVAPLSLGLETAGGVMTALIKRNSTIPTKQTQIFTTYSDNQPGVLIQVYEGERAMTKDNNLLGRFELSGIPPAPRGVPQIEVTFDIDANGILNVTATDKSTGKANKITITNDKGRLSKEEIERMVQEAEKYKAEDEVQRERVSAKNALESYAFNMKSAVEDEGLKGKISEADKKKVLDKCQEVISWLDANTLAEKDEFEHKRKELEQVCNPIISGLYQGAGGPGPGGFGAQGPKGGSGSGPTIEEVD

[13] = target: T3, Heat shock 70 kDa protein 1A; assay: small molecules displacing fluorescent ligand from Hsp70 – biochemical, fluorescence polarization, primary screen (AID 583)

Glyceraldehyde-3-phosphate dehydrogenase, sequence (P04406 whole entry): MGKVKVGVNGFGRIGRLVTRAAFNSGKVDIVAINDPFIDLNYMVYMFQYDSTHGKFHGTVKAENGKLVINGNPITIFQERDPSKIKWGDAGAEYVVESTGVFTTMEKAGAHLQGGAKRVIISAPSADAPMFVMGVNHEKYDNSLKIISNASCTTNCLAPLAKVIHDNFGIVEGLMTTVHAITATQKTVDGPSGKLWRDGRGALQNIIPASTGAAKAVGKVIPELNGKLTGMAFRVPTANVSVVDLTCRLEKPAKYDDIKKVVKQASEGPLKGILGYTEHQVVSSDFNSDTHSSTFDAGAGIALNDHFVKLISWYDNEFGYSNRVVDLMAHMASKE
Protein-tyrosine kinase 2-beta, sequence (Q14289 whole entry): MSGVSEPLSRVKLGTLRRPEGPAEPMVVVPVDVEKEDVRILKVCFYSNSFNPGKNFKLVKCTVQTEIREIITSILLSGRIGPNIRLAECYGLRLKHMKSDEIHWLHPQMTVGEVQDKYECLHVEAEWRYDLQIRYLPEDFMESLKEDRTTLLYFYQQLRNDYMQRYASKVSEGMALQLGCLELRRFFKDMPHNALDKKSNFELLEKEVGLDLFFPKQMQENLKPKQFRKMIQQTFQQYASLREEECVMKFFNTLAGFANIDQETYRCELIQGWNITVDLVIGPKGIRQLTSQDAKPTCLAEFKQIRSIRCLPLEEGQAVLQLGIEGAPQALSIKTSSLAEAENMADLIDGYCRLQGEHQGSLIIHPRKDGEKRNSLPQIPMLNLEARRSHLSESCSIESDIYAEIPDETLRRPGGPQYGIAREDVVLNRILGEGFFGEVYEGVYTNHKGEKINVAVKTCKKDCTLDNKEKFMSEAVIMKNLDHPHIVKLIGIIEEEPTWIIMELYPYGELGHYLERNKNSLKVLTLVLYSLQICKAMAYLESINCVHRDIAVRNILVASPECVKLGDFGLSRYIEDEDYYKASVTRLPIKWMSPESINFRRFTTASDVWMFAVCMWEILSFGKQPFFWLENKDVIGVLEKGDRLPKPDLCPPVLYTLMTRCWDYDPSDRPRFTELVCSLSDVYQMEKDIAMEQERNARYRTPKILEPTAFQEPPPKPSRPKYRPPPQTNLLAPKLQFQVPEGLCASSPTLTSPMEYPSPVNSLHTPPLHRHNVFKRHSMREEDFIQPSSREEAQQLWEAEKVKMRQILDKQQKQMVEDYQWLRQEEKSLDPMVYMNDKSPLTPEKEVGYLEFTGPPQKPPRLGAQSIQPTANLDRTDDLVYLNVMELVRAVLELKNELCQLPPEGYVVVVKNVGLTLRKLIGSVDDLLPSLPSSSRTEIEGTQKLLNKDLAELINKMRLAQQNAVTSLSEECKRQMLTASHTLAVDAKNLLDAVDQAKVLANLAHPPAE

Structure (SMILES): CCN(CC)S(=O)(=O)c1cc([N+](=O)[O-])ccc1NNC(=O)Nc1ccccc1
IC50 [1]: > 69.5 µM (not active)

Structure (SMILES): O=C1C(Cl)=C(Cl)C(=O)N1c1cccc(Cl)c1Cl
IC50 [2]: > 100 µM (not active)
IC50 (Bcl-2-related protein A1 [3]): 0.5 µM (active)
IC50 (Bcl-2-related protein A1 [4]): 0.979 µM (active)

Structure (SMILES): Nc1ccc2oc(-c3ccc4[nH]cnc4c3)nc2c1
EC50 [7]: 11.2 µM (active)
EC50 (HT-1080): > 50 µM (not active)

Structure (SMILES): CC1CCCCN1C(=O)Cn1cc(C(=O)c2ccco2)c2ccccc21 (centres undefined)
IC50 [10]: > 50 µM (not active)
IC50 [11]: > 50 µM (not active)

Second part, the compound after the results:

IC50 [5]: > 100 µM (inactive)
IC50 [6]: > 100 µM (not active)
Structure (SMILES): O=c1c2ccccc2nnn1CSc1nnc(-c2cccs2)n1Cc1ccccc1

IC50 [8]: 15.1 µM (not active)
IC50 [9]: > 111 µM (not active)
Structure (SMILES): O=C(Nc1ccc(Oc2ccc3c(c2)C(=O)N(c2ccc(O)cc2)C3=O)cc1)c1cccs1

IC50 [12]: > 100 µM (not active)
IC50 [13]: > 100 µM (not active)
Structure (SMILES): Cc1c(NC(=O)Nc2ccc(Cl)cc2)c(=O)n(-c2ccccc2)n1C

From ChEMBL document CHEMBL1201862, “PubChem BioAssay data set” (2004)
